Numbers after ± are expanded uncertainties.
Conditions: Liquid, Manometric method

| vapor or sublimation pressure (287.15 K) [kPa] | vapor or sublimation pressure (296.35 K) [kPa] | vapor or sublimation pressure (305.35 K) [kPa] | vapor or sublimation pressure (313.45 K) [kPa] | vapor or sublimation pressure (323.05 K) [kPa] | vapor or sublimation pressure (332.95 K) [kPa] | vapor or sublimation pressure (343.05 K) [kPa] | vapor or sublimation pressure (352.85 K) [kPa] | vapor or sublimation pressure (363.05 K) [kPa] | vapor or sublimation pressure (372.85 K) [kPa] | vapor or sublimation pressure (283.15 K) [kPa] | vapor or sublimation pressure (293.15 K) [kPa] | vapor or sublimation pressure (303.15 K) [kPa] | vapor or sublimation pressure (313.15 K) [kPa] | vapor or sublimation pressure (323.15 K) [kPa] | vapor or sublimation pressure (333.15 K) [kPa] | vapor or sublimation pressure (343.15 K) [kPa] | vapor or sublimation pressure (346.65 K) [kPa] | Structure (SMILES) |
| --- | --- | --- | --- | --- | --- | --- | --- | --- | --- | --- | --- | --- | --- | --- | --- | --- | --- | --- |
| 1.64 ± 0.21 | 2.81 ± 0.22 | 4.74 ± 0.22 | 7.51 ± 0.23 | 12.26 ± 0.26 | 19.69 ± 0.32 | 30.94 ± 0.42 | 46.73 ± 0.57 | 69.75 ± 0.8 | 100.32 ± 1.1 | – | – | – | – | – | – | – | – | O [water] |
| – | – | – | – | – | – | – | – | – | – | 3.96 ± 0.22 | 7.25 ± 0.22 | 12.82 ± 0.23 | 21.83 ± 0.26 | 36.1 ± 0.3 | 57.08 ± 0.38 | 87.31 ± 0.46 | 100.8 ± 0.52 | OCC(F)(F)F [2,2,2-trifluoroethanol] |
